Test results from patent US20230348401A1, “Inhibitors of Glucose-6-phosphate Dehydrogenase and Uses Thereof” (The Trustees of Princeton University, priority 2020, published 2023).

How the values were obtained:
G6PD [1] = target: T1, G6PD (Homo sapiens, UniProt P11413); test: 2H transfer from 1-2H-glucose to NADPH active hydride and C16:0 in HCT116 cells; assay type: cell-based; design: endogenous in cells; host or cells: HCT116; conditions: HCT116 cells
Excerpt: Direct Monitoring of NADPH Produced by the G6PD Reaction. […] NADPH production is compartmentalized, and occurs through reduction of its redox partner NADP^+. G6PD is one of the main enzymes that generates NADPH, and catalyzes the transfer of electrons (in the form of hydride) from glucose-6-phosphate to NADP^+. By installing a deuterium at the “one” position of glucose (1-^2H-glucose), the transfer of that deuterium to the active hydride of NADPH via glucose-6-phosphate can be specifically monitored. Also, a major use of cytosolic NADPH is fat synthesis. Transfer of ^2H from glucose via NADPH into free palmitate (C16:0) requires two NADPH per two-carbon unit addition during its synthesis.
Next, G6PD mediated hydride transfer to NADPH was directly monitored. Specifically, transfer of deuterium from 1-^2H-glucose, via glucose-6-phosphate, to the NADPH’s active hydride was monitored (FIG. 1B). […] The impacted step was G6PD, as no change in substrate (G6P) labeling was observed (FIG. 1E). A major use of cytosolic NADPH is fat synthesis. Transfer of ^2H from glucose via NADPH into palmitate (C16:0), which requires two NADPH per 2-carbon unit addition during its synthesis, was quantified (FIG. 1B).
For all experiments involving stable isotope tracers (e.g., 1-^2H-glucose), the isotope tracer nutrient was substituted for unlabeled nutrient at the same concentration normally found in the base media for a given cell type (e.g., DMEM for HCT116, RPMI for T cells, etc.). In addition, dialyzed FBS was used as a supplement in place of FBS.
Cytosolic NADPH sources were traced, and redox active hydride labeling was calculated, using a previously described strategy. 1-^2H-glucose (which directly traces G6PD) or 3-^2H-glucose (which directly traces PGD) were used for tracing oxPPP contribution to NADPH; 4-^2H-glucose for ME1; [2,3,3,4,4-^2H5]-glutamine, for both ME1 and IDH1; and D2O, to account for solvent exchange.
For analysis of intracellular metabolites by LC-MS, adherent cell lines were plated and grown to 80% confluency in 6-well plates. At the start of an experiment, the appropriate media was added to cells, which included isotope tracers and/or chemical inhibitors as described. Cells were incubated at 37° C. at 5% CO2 for 2 hours (unless otherwise noted). For all experiments involving small molecule agents, DMSO concentrations were <0.2%. After 2 hours, media was removed by aspiration and metabolome extraction was performed (without any wash steps) by the addition of 800 µL of ice cold solvent (40:40:20 acetonitrile:methanol:water + 0.5% formic acid). After a 1-minute incubation on ice, the extract was neutralized by the addition of NH4HCO3 (15% w/v). The samples were incubated at -20° C. for approximately 30 minutes, at which point the wells were scraped and the extract transferred to Eppendorf tubes and centrifuged (15 minutes, 16000 rpm, 4° C.). The resulting supernatant was frozen on dry ice and kept at -80° C. until LC-MS analysis.
Target sequence in this assay (P11413 whole entry): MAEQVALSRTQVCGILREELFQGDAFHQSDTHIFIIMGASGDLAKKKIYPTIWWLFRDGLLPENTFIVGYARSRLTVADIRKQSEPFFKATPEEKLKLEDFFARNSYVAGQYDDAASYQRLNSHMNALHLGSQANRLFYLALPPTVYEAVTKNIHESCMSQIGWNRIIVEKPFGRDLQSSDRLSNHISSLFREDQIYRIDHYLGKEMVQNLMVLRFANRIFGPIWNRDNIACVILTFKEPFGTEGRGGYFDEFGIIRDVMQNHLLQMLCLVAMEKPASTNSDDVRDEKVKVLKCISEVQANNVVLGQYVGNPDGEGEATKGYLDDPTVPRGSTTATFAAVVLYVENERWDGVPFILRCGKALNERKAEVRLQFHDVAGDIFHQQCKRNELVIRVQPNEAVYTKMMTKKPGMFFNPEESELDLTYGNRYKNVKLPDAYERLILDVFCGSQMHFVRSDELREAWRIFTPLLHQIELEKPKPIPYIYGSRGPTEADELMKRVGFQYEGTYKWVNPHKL

CD8+ and CD4+ T cells = test: Intracellular ROS (CellROX green); assay type: cell-based, mouse; conditions: two hours
Protocol: For measuring intracellular ROS levels, cells were incubated for 2 hours in the presence of increasing concentrations of G6PDi-1 and then stained for ROS and viability using CellROX Green Flow Cytometry Assay Kit following manufacturer instructions. In some experiments, n-acetyl cysteine (1 mM), galactose oxidase (0.045 U/mL) + galactose (500 µM), or potassium superoxide (0.5 µg/mL) were added to the culture media at the same time the drug and/or PMA and ionomycin were added. All flow cytometry was analyzed with an LSR II (BDbiosciences) using standard filter sets and FCS express 6 flow cytometry software (De Novo Software).

active CD8+ T cells = test: Absolute oxPPP flux by 14CO2 emission; assay type: cell-based, mouse; conditions: 10 uM
Protocol: Glucose oxidation flux through oxPPP was determined from difference in the rate of ^14CO2 released from [1-^14C]-glucose and [6-^14C]-glucose, as previously described with some modification. RPMI 1640 media without sodium bicarbonate was supplemented with 0.74 g/L of NaHCO3, 2.5 mM HEPES pH 7.4, 10% dFBS, and 1% of either 1-^14C-glucose or 6-^14C-glucose. Three million primary mouse naïve (rested in IL-7) or active CD8+ T cells (in the presence of IL2 and 0.1% DMSO or 10 uM G6PDi-1) were incubated for 4 hours in a sealed 12.5 cm^2 flask. To facilitate the collection of ^14CO2, 100 µL of a 10 M KOH solution was introduced into the sealed flask using a center well for incubation flask (8823200000, DWK Life Sciences). The assay was stopped by injection of 1 mL 1 M HCL, and the KOH solution then transferred to scintillation vials containing 10 mL scintillation solution for counting. The signal was corrected for the percentage of radioactive tracer in the medium. OxPPP flux is calculated as follows: […]

colony formation = test: Colony formation; assay type: cell-based; conditions: dose-response; rescued by exogenous antioxidants
G6PD [2] = target: T1, G6PD; test: Cellular thermal shift assay (CETSA) in HepG2 lysates; assay type: binding; design: endogenous in cells; conditions: up to 56° C.
Protocol: Lysates from HepG2 cells at 75% confluence were isolated with 0.5% Triton in TBS (20 mM, Tris pH 7.4, 150 mM NaCl) for 30 min on ice, pre-cleared by centrifugation and used for thermal shift assay as described 49. Briefly, inhibitor or DMSO control was added to lysates at indicated concentration and incubated for 30 min on ice followed by 3 min heating at 47° C., 50° C., 53° C., and 56° C. in a thermal cycler. After heating, tubes were cooled at room temperature for 3 min and insoluble fraction removed by centrifugation at 17,000 g for 20 min. The soluble fraction was separated by SDS-PAGE, transferred to PVDF membrane, and immunoblotted using indicated antibodies at a dilution of 1:2000. Blots were developed by chemiluminescence and imaged using LI-COR C-DiGit Western Blot Scanner. Two independent experiments were performed. Signal intensity of proteins from immunoblots was quantified using Image Studio version 5.2 for C-DiGit Scanner, and bands were normalized to signal intensity of the 47° C. treated samples. Relative signal intensities were plotted as bar graph relative to the DMSO treated control.
Target sequence in this assay (P11413 whole entry): as above

G6PD [3] = target: T1, G6PD; test: G6PD enzymatic activity by diaphorase-coupled assay
Target sequence in this assay (P11413 28-515): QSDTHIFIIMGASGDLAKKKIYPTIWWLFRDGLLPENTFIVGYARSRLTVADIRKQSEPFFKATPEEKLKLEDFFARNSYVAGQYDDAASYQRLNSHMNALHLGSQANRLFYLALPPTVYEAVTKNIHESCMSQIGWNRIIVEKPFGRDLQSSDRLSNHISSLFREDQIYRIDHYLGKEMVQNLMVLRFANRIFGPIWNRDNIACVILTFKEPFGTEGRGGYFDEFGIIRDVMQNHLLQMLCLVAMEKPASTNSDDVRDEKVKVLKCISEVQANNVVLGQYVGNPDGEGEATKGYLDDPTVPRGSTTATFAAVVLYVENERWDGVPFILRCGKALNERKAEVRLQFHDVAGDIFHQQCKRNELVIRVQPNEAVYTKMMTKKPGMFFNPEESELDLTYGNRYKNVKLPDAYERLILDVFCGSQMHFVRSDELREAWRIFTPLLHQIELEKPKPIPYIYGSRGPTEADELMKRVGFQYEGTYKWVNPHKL

For `N#Cc1cc(Nc2ncc3c(n2)CCCCC3=O)cs1` [Compound 2, 4-([5-oxo-6H,7H,8H,9H-cyclohepta[d]pyrimidin-2-yl]amino)thiophene-2-carbonitrile], the “2H transfer from 1-2H-glucose to downstream product C16:0” value (G6PD [1]; dose-response) was “dose-dependent decrease”, the IC50 (G6PD [1]; read-out: IC50, decrease in 2H transfer from 1-2H-glucose to NADPH's active hydride) was ~31 µM and the reactive oxygen species (CD8+ and CD4+ T cells) was “elevated reactive oxygen species”. The “absolute oxPPP flux” value (active CD8+ T cells) was “blocked”, the colony formation (colony formation) was “dose-dependent decrease” and the “thermal stabilization of G6PD” value (G6PD [2]) was “significant thermal stabilization of G6PD”. The “mode of binding to G6PD” value (G6PD [3]; competition assays against both substrates, in vitro dilution experiments) was “non-competitively and reversibly” and the IC50 (G6PD [3]; read-out: IC50 (half-maximal inhibitory constant) against human G6PD, coupled enzymatic assay, recombinant human enzyme) was 0.07 µM.
